Like-named read-outs stand apart in the source and are kept apart here.

The series is described as follows: Cytotoxicity Assay (HCT116, CellTiter-Glo). As to conditions: human. It is filed as cell-based. How it is done: HCT116 cells were seeded in 96 well plates (Greiner Bio-One, Monroe, N.C.) and allowed to settle overnight. Test compound dissolved in dimethyl sulfoxide (DMSO) was added and drug incubation proceeded for 72 hours. When applicable, a 1000× solution of nicotinic acid (NA; Sigma-Aldrich, St. Louis, Mo.) dissolved in water was generated, and 1×NA (10 μM final concentration) was added at the same time as the test compound. After 72 hour, 50 μL of CellTiter-Glo Luminescent Cell Viability Assay reagent (Promega Corporation, Madison, Wis.) was added to cells in 200 μL of cellular media. After a proscribed incubation period, luminescence was measured using a TopCount NXT plate reader (PerkinElmer, Waltham, Mass.).

Where [1] appears, read: HCT116 cells, 72 hours drug incubation, CellTiter-Glo luminescence, read-out: HCT116 cell cytotoxicity IC50.

Turning to `CCOC(=O)c1c(C)n(-c2ccc(NC(=O)NCc3cccnc3)cc2)c2ccccc12` [Compound 79, Ethyl 2-methyl-1-(4-{[(pyridin-3-ylmethyl)carbamoyl]amino}phenyl)-1H-indole-3-carboxylate], the IC50 at 72 h (HCT116 cell cytotoxicity IC50) was not below 100 nM.
For the compound `O=C(NCc1cccnc1)Nc1ccc(-n2c(Cl)c(C(=O)N3CCC(n4ccnc4)CC3)c3ccccc32)cc1` [Compound 127, 1-[4-(2-Chloro-3-{[4-(1H-imidazol-1-yl)piperidin-1-yl]carbonyl}-1H-indol-1-yl)phenyl]-3-(pyridin-3-ylmethyl)urea], for the setting “HCT116 cell cytotoxicity IC50”, the 50% inhibitory concentration (IC50) at 72 h is less than 100 nM.
With `Cc1c(Cc2ccccc2)c(C(=O)N2CCC(N3CCCCC3)CC2)nn1-c1ccc(NC(=O)NCc2cccnc2)cc1` [Compound 46, 1-{4-[4-Benzyl-3-(1,4′-bipiperidin-1′-ylcarbonyl)-5-methyl-1H-pyrazol-1-yl]phenyl}-3-(pyridin-3-ylmethyl)urea], under setting [1], the IC50 at 72 h is less than 100 nM.
Still for that read-out and setting: the value for `O=C(NCc1cccnc1)Nc1ccc(-n2cc(C(=O)N3CCN(C4CCCCC4)CC3)c3ccccc32)c(Cl)c1` [Compound 92, 1-(3-Chloro-4-{3-[(4-cyclohexyl-piperazin-1-yl)carbonyl]-1H-indol-1-yl}phenyl)-3-(pyridin-3-ylmethyl)urea] was less than 100 nM.
For `O=C(NCc1cccnc1)Nc1ccc(-n2cc(-c3nccn3CCCN3CCCC3)c3ccccc32)cc1` [Compound 120, 1-(Pyridin-3-ylmethyl)-3-[4-(3-{1-[3-(pyrrolidin-1-yl)propyl]-1H-imidazol-2-yl}-1H-indol-1-yl)phenyl] urea], for the setting “HCT116 cell cytotoxicity IC50”, the IC50 at 72 h is not below 100 nM.
`CN(C)C1CCN(C(=O)c2nn(-c3ccc(/C=C/C(=O)NCc4cccnc4)cc3)c3ccccc23)C1` (centres unmarked) [Compound 166, (2E)-3-[4-(3-{[3-(Dimethylamino)pyrrolidin-1-yl]carbonyl}-1H-indazol-1-yl)phenyl]-N-(pyridin-3-ylmethyl)prop-2-enamide]: the IC50 at 72 h under setting [1] was less than 100 nM.
Turning to `O=C(NCc1cccnc1)Nc1ccc(-n2cc(C3CCN(C4COC4)CC3)c3ccccc32)cc1` [Compound 105, 1-(4-{3-[1-(Oxetan-3-yl)piperidin-4-yl]-1H-indol-1-yl}phenyl)-3-(pyridin-3-ylmethyl)urea], the IC50 at 72 h under setting [1] is less than 100 nM.
The same measure, in the same setting: the value for `Cc1c(C(=O)N2CCN(C3CCC(F)(F)CC3)CC2)c2ccccc2n1-c1ccc(NC(=O)NCc2cccnc2)cc1` [Compound 93, 1-[4-(3-{[4-(4,4-Difluoro-cyclohexyl)pipe-razin-1-yl]carbonyl}-2-methyl-1H-indol-1-yl)phenyl]-3-(pyridin-3-ylmethyl)urea] was less than 100 nM; that for `CCOC(=O)c1cn(CCCCNC(=O)NCc2cccnc2)c2ccccc12` [Compound 45, Ethyl 1-(4-{[(pyridin-3-ylmethyl)carbamoyl]amino}butyl)-1H-indole-3-carboxylate] was less than 100 nM.
As for `O=C(NCCCCC(=O)c1cn(C2CCNCC2)c2ccccc12)NCc1cccnc1` [Compound 90, 1-{5-Oxo-5-[1-(piperidin-4-yl)-1H-indol-3-yl]pentyl}-3-(pyridin-3-ylmethyl)urea], the IC50 at 72 h under setting [1] is less than 100 nM.
`Cc1c(-c2ccccc2)c(C(=O)N2CCC(N3CCCCC3)CC2)nn1-c1ccc(NC(=O)NCc2cccnc2)cc1` [Compound 73, 1-{4-[3-(1,4′-Bipiperidin-1′-ylcarbonyl)-5-methyl-4-phenyl-1H-pyrazol-1-yl]phenyl}-3-(pyridin-3-ylmethyl)urea]: under setting [1], the IC50 at 72 h is less than 100 nM.
Still for that read-out and setting: the same measure for `O=C(NCCCCCn1cc(C(=O)N2CCC(N3CCCCC3)CC2)c2ccccc21)NCc1cccnc1` [Compound 31, 1-{5-[3-(1,4′-Bipiperidin-1′-yl-carbonyl)-1H-indol-1-yl]pentyl}-3-(pyridin-3-ylmethyl)urea]: less than 100 nM; for `O=C(NCc1cccnc1)Nc1ccc(-n2cc(C3CCN(C4CCCC4)CC3)c3ccccc32)cc1` [Compound 110, 1-{4-[3-(1-Cyclopentyl-piperidin-4-yl)-1H-indol-1-yl]phenyl}-3-(pyridin-3-ylmethyl)urea]: less than 100 nM; for `O=C(NCc1cccnc1)Nc1ccc(-n2nc(N3CCNCC3)c3ccccc32)cc1` [Compound 98, 1-{4-[3-(Piperazin-1-yl)-1H-indazol-1-yl]phenyl}-3-(pyridin-3-ylmethyl)urea]: less than 100 nM.
The same measure, in the same setting: the same measure for `O=C(/C=C/c1ccc(-n2cc(CCN3CCOCC3)c3ccccc32)nc1)NCc1cccnc1` [Compound 179, (2E)-3-(6-{3-[2-(Morpholin-4-yl)ethyl]-1H-indol-1-yl}pyridin-3-yl)-N-(pyridin-3-ylmethyl)prop-2-enamide]: less than 100 nM; for `O=C(NCc1cccnc1)Nc1ccc(-n2nc(N3CCN(C4COC4)CC3)c3ccccc32)cc1` [Compound 114, 1-(4-{3-[4-(Oxetan-3-yl)piperazin-1-yl]-1H-indazol-1-yl}phenyl)-3-(pyridin-3-ylmethyl)urea]: less than 100 nM.
The same measure, in the same setting: the value for `O=C(NCc1cccnc1)Nc1ccc2c(C(=O)N3CCC(N4CCCCC4)CC3)cn(Cc3ccccc3)c2c1` [Compound 68, 1-[1-Benzyl-3-(1,4′-bipiperidin-1′-yl-carbonyl)-1H-indol-6-yl]-3-(pyridin-3-ylmethyl)urea] was not below 100 nM.
For the compound `Nc1nn(-c2ccc(NC(=O)NCc3cccnc3)cc2)c2ccccc12` [Compound 44, 1-[4-(3-aminoindazol-1-yl)phenyl]-3-(3-pyridylmethyl)urea], where the note is “HCT116 cell cytotoxicity IC50”, the IC50 at 72 h was not below 100 nM.
`O=C(NCCCCC(=O)c1cn(C2CCN(CCF)CC2)c2ccccc12)NCc1cccnc1` [Compound 39]: the IC50 at 72 h under setting [1] was less than 100 nM.
Turning to `Cc1c(Cc2ccc(F)cc2)c(C(=O)N2CCC(N3CCCCC3)CC2)nn1-c1ccc(NC(=O)NCc2cccnc2)cc1` [Compound 81, 1-{4-[3-(1,4′-Bipiperidin-1′-ylcarbonyl)-4-(4-fluorobenzyl)-5-methyl-1H-pyrazol-1-yl]phenyl}-3-(pyridin-3-ylmethyl)urea], the IC50 at 72 h (HCT116 cell cytotoxicity IC50) is not below 100 nM.
For the compound `O=C(NCc1cccnc1)Nc1ccc(-c2nn(CCN3CCCCC3)c3ccccc23)cc1` [Compound 75, 1-[4-[1-[2-(1-piperidyl)ethyl]indazol-3-yl]phenyl]-3-(3-pyridylmethyl)urea], the IC50 at 72 h under setting [1] is less than 100 nM.
For the setting “HCT116 cell cytotoxicity IC50”, `CC(C)(C)OC(=O)N1CC(N2CC(CCCCCCNC(=O)NCc3cccnc3)c3ccccc32)C1` (centres unmarked) [Compound 121, tert-Butyl 3-[3-(6-{[(pyridin-3-yl-methyl)carbamoyl]amino}hexyl)-2,3-dihydro-1H-indol-1-yl]azetidine-1-carboxylate] registered an IC50 at 72 h of less than 100 nM.
As for `O=C(NCCCn1cc(C(=O)N2CCC(N3CCCCC3)CC2)c2ccccc21)NCc1cccnc1` [Compound 36, 1-{3-[3-(1,4′-Bipiperidin-1′-ylcarbonyl)-1H-indol-1-yl]propyl}-3-(pyridin-3-ylmethyl)urea], the IC50 at 72 h under setting [1] was not below 100 nM.
`O=C(NCc1ccc(Cl)nc1)Nc1ccc(-n2nc(N3CCN(C4CCCC4)CC3)c3ccccc32)cc1` [Compound 55, 1-[(6-Chloro-pyridin-3-yl)methyl]-3-{4-[3-(4-cyclopentyl-piperazin-1-yl)-1H-indazol-1-yl]phenyl}urea] displayed a concentration for half-maximal inhibition (IC50) at 72 h (HCT116 cell cytotoxicity IC50) not below 100 nM.
As to `CCN(CC)CCc1cn(-c2ccc(/C=C/C(=O)NCc3cccnc3)cc2)c2ccccc12` [Compound 162, (2E)-3-(4-{3-[2-(Diethylamio)ethyl]-1H-indol-1-yl}phenyl)-N-(pyridin-3-ylmethyl)prop-2-enamide], the IC50 at 72 h under setting [1] was less than 100 nM.
In turn, `CCOCCOCCN1CCC2(CC1)CN(c1ccc(NC(=O)NCc3cccnc3)cc1)c1ccccc12` [Compound 126, 1-(4-{1′-[2-(2-Ethoxy-ethoxy)ethyl]spiro[indole-3,4′-piperidin]-1(2H)-yl}phenyl)-3-(pyridin-3-ylmethyl)urea] yielded an IC50 at 72 h (HCT116 cell cytotoxicity IC50) not below 100 nM.
In the case of `O=C(NCc1cccnc1)Nc1ccc(-n2cc(-c3nccn3CCN3CCCCC3)c3ccccc32)cc1` [Compound 52, 1-[4-(3-{1-[2-(Piperidin-1-yl)ethyl]-1H-imidazol-2-yl}-1H-indol-1-yl)phenyl]-3-(pyridin-3-ylmethyl)urea], under setting [1], the IC50 at 72 h was less than 100 nM.
Same read-out and setting: the same measure for `CN(C)CC(=O)N1CCC2(CC1)CN(c1ccc(NC(=O)NCc3cccnc3)cc1)c1ccccc12` [Compound 112, 1-{4-[1′-(N,N-Dimethylglycyl)spiro[indole-3,4′-piperidin]-1(2H)-yl]phenyl}-3-(pyridin-3-ylmethyl)urea]: less than 100 nM; for `O=C(/C=C/c1ccc(-n2cc(CCN3CCCC3)c3ccccc32)cc1)NCc1cccnc1` [Compound 174, (2E)-N-(Pyridin-3-ylmethyl)-3-(4-{3-[2-(pyrrolidin-1-yl)ethyl]-1H-indol-1-yl}phenyl)prop-2-enamide]: less than 100 nM; for `O=C(NCCCCCn1cc(C(=O)N2CCC(N3CCC(F)(F)CC3)CC2)c2ccccc21)NCc1cccnc1` [Compound 32, 1-(5-{3-[(4,4-Difluoro-1,4′-bipiperidin-1′-yl)carbonyl]-1H-indol-1-yl}pentyl)-3-(pyridin-3-ylmethyl)urea]: less than 100 nM.
Same read-out and setting: the same measure for `O=C(NCc1cccnc1)Nc1ccc(-n2cc(C(=O)N3CCC(N4CCC(F)(F)CC4)CC3)c3ccccc32)c(Cl)c1` [Compound 107, 1-(3-Chloro-4-{3-[(4,4-difluoro-1,4′-bipiperidin-1′-yl)carbonyl]-1H-indol-1-yl}phenyl)-3-(pyridin-3-ylmethyl)urea]: less than 100 nM.
In the case of `O=C(NCc1cccnc1)Nc1ccc(-n2cc(-c3nccn3CCN3CCOCC3)c3ccccc32)cc1` [Compound 102, 1-[4-(3-{1-[2-(Morpholin-4-yl)ethyl]-1H-imidazol-2-yl}-1H-indol-1-yl)phenyl]-3-(pyridin-3-ylmethyl)urea], the half-maximal inhibitory concentration (IC50) at 72 h under setting [1] was less than 100 nM.

These data come from patent publication US20140349989A1, “COMPOUNDS AND THERAPEUTIC USES THEREOF” (Alzheimer's Institute of America, priority 2011, published 2014).
